Measurements: patent US9260408B2, “Dihydroquinoline-2-one derivatives” (Hoffmann-La Roche Inc., priority 2011, dated 2016)
Where a name gives a salt, the structure may show the parent alone.

How the values were obtained:
human CYP11B1 = target: T1, human CYP11B1 (Homo sapiens, UniProt P15538); experiment: G-402 cellular enzyme assay, human CYP11B1 (cortisol release, HTRF); assay type: cell-based; settings: G-402 cells expressing human CYP11B1; 1 μM Deoxycortisol
T1 construct: expressed in transfected cells
T1 sequence (P15538 25-503): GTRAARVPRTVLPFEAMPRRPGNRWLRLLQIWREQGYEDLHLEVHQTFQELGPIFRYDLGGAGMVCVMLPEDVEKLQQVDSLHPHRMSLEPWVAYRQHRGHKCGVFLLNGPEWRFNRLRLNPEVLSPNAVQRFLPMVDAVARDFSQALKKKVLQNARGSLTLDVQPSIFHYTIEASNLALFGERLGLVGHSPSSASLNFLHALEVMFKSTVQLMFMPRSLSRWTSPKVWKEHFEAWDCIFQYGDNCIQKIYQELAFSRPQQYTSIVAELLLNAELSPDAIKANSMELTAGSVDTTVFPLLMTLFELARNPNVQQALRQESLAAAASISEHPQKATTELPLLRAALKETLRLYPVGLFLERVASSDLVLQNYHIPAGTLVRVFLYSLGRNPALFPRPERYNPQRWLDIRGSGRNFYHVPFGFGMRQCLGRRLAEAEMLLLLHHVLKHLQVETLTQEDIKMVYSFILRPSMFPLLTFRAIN
Procedure, shortened: (§1)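 G-402 cells stably expressing human CYP11B2 or CYP11B1, in DMEM/F12 with 2.5% charcoal-treated FCS, were incubated 16 h with compound plus 1 μM deoxycorticosterone (CYP11B2) or 1 μM deoxycortisol (CYP11B1). Aldosterone or cortisol in the supernatant measured by HTRF; EC50 from a 4-parameter MMF fit.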

human CYP11B2 = target: T2, human CYP11B2 (Homo sapiens, UniProt P19099); experiment: G-402 cellular enzyme assay, human CYP11B2 (aldosterone release, HTRF); assay type: cell-based; settings: G-402 cells expressing human CYP11B2; 1 μM Deoxycorticosterone
T2 construct: expressed in transfected cells
T2 sequence (P19099 25-503): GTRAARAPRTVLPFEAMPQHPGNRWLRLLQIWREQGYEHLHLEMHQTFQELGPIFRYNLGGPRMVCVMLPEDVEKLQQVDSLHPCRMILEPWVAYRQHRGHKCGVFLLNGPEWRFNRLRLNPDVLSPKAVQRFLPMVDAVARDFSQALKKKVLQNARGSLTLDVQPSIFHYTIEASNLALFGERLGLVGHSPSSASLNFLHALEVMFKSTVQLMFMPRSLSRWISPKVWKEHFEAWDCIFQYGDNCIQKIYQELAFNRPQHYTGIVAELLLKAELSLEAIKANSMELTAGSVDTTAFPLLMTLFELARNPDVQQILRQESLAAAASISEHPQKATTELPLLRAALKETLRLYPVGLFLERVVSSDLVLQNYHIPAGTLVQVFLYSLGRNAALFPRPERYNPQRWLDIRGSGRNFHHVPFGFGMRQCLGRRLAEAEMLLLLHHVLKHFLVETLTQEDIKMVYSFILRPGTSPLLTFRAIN
Procedure, shortened: as §1

SMILES	EC50 (human CYP11B1) [nM]	EC50 (human CYP11B2) [nM]
CCS(=O)(=O)N1CCC[C@H](Oc2cncc(-c3ccc4c(c3)CCC(=O)N4C)c2)C1 [Example 160, 6-[5-((S)-1-Ethanesulfonyl-piperidin-3-yloxy)-pyridin-3-yl]-1-methyl-3,4-dihydro-1H-quinolin-2-one]	716	113
COc1cc(C(=O)NCc2cncc(-c3ccc4c(c3)CCC(=O)N4C)c2)on1 [Example 40, 3-Methoxy-isoxazole-5-carboxylic acid [5-(1-methyl-2-oxo-1,2,3,4-tetrahydro-quinolin-6-yl)-pyridin-3-ylmethyl]-amide]	750	15
CN1C(=O)CCc2cc(-c3cncc(CN)c3)c(F)cc21 [Example 73, 6-(5-Aminomethyl-pyridin-3-yl)-7-fluoro-1-methyl-3,4-dihydro-1H-quinolin-2-one]	575	17
CCS(=O)(=O)NCc1cncc(-c2cc3c(cc2F)N(C)C(=O)CC3)c1C [Example 192, Ethanesulfonic acid [5-(7-fluoro-1-methyl-2-oxo-1,2,3,4-tetrahydro-quinolin-6-yl)-4-methyl-pyridin-3-ylmethyl]-amide]	1980	29
Cc1nc(C(=O)NCc2cncc(-c3ccc4c(c3)CCC(=O)N4C)c2)co1 [Example 109]	712	78
CN1C(=O)CCc2cc(-c3cncc(CNC(=O)C(C)(C)O)c3)ccc21 [Example 79]	302	35
CCS(=O)(=O)N1CCC[C@H]1COc1cncc(-c2ccc3c(c2)CCC(=O)N3C)c1 [Example 167, 6-[5-((S)-1-Ethanesulfonyl-pyrrolidin-2-ylmethoxy)-pyridin-3-yl]-1-methyl-3,4-dihydro-1H-quinolin-2-one]	898	18
CN1C(=O)CCc2cc(-c3cncc(OC[C@@H]4CCN4C(=O)OC(C)(C)C)c3)ccc21 [Example 45, (S)-2-[5-(1-Methyl-2-oxo-1,2,3,4-tetrahydro-quinolin-6-yl)-pyridin-3-yloxymethyl]-azetidine-1-carboxylic acid tert-butyl ester]	863	87
CN1C(=O)CCc2cc(-c3cncc(N4C(=O)CC[C@H]4CO)c3)ccc21 [Example 13]	17900	319
CN(Cc1cncc(-c2ccc3c(c2)CCC(=O)N3C)c1)C(=O)c1cnn(C)c1 [Example 198, 1-Methyl-1H-pyrazole-4-carboxylic acid methyl-[5-(1-methyl-2-oxo-1,2,3,4-tetrahydro-quinolin-6-yl)-pyridin-3-ylmethyl]-amide]	188	7
CN1C(=O)CCc2cc(-c3cncc(CN4CCCCS4(=O)=O)c3)ccc21 [Example 44, 6-[5-(1,1-Dioxo-1λ^6-[1,2]thiazinan-2-ylmethyl)-pyridin-3-yl]-1-methyl-3,4-dihydro-1H-quinolin-2-one]	568	5
CN1C(=O)CCc2cc(-c3cncc(CNC(=O)c4ncccc4F)c3)ccc21 [Example 119]	75	6
Cc1nc(C(=O)NCc2cncc(-c3ccc4c(c3)CCC(=O)N4C)c2)c(C(F)(F)F)o1 [Example 108]	1110	32
Cc1noc(C)c1C(=O)NC(C)c1cncc(-c2ccc3c(c2)CCC(=O)N3C)c1C (single isomer, unassigned) [Example 242, 3,5-Dimethyl-isoxazole-4-carboxylic acid {(R or S)-1-[4-methyl-5-(1-methyl-2-oxo-1,2,3,4-tetrahydro-quinolin-6-yl)-pyridin-3-yl]-ethyl}-amide]	3690	100
Cc1noc(C)c1C(=O)NCCOc1cncc(-c2ccc3c(c2)CCC(=O)N3C)c1 [Example 102]	1440	14
Cc1ocnc1C(=O)NCc1cncc(-c2ccc3c(c2)CCC(=O)N3C)c1 [Example 112]	151	6
CCC(=O)N1CCC(Oc2cncc(-c3ccc4c(c3)CCC(=O)N4C)c2)CC1 [Example 88]	13	1

SMILES	EC50 (human CYP11B1) [nM]	EC50 (human CYP11B2) [nM]
CCC(=O)NCc1cncc(-c2cc3c(cc2F)N(C)C(=O)CC3)c1 [Example 212, N-[5-(7-Fluoro-1-methyl-2-oxo-1,2,3,4-tetrahydro-quinolin-6-yl)-pyridin-3-ylmethyl]-propionamide]	4830	51
CCS(=O)(=O)NC1(c2cncc(-c3ccc4c(c3)CCC(=O)N4C)c2)CC1 [Example 166, Ethanesulfonic acid {1-[5-(1-methyl-2-oxo-1,2,3,4-tetrahydro-quinolin-6-yl)-pyridin-3-yl]-cyclopropyl}-amide]	1210	22
CN1C(=O)CCc2cc(-c3cncc(O[C@@H]4CCNC4)c3)c(F)cc21 [Example 67, 7-Fluoro-1-methyl-6-[5-((R)-pyrrolidin-3-yloxy)-pyridin-3-yl]-3,4-dihydro-1H-quinolin-2-one hydrochloride]	7670	160
COC(=O)[C@@H]1CCCN1Cc1cncc(-c2ccc3c(c2)CCC(=O)N3C)c1 [Example 22]	100	25
CC(NC(=O)c1ncccc1Cl)c1cncc(-c2ccc3c(c2)CCC(=O)N3C)c1 (single isomer, unassigned) [Example 230, 3-Chloro-pyridine-2-carboxylic acid {(R or S)-1-[5-(1-methyl-2-oxo-1,2,3,4-tetrahydro-quinolin-6-yl)-pyridin-3-yl]-ethyl}-amide]	7	1
CCS(=O)(=O)N1CC[C@H](Oc2cncc(-c3ccc4c(c3)CCC(=O)N4C)c2)C1 [Example 164, 6-[5-((S)-1-Ethanesulfonyl-pyrrolidin-3-yloxy)-pyridin-3-yl]-1-methyl-3,4-dihydro-1H-quinolin-2-one]	207	9
CCC(=O)N1CC[C@H](Oc2cncc(-c3ccc4c(c3)CCC(=O)N4C)c2)C1 [Example 90]	1500	11
COc1ccc(C(=O)NCc2cncc(-c3ccc4c(c3)CCC(=O)N4C)c2)nn1 [Example 100]	140	7
Cc1c(-c2ccc3c(c2)CCC(=O)N3C)cncc1C(C)NC(=O)c1ncccc1Cl (single isomer, unassigned) [Example 241, 3-Chloro-pyridine-2-carboxylic acid {(R or S)-1-[4-methyl-5-(1-methyl-2-oxo-1,2,3,4-tetrahydro-quinolin-6-yl)-pyridin-3-yl]-ethyl}-amide]	251	7
CN1C(=O)CCc2cc(-c3cncc(NCc4ccccc4)n3)c(F)cc21 [Example 27]	270	7
CCS(=O)(=O)NCc1cncc(-c2cc3c(cc2F)N(C)C(=O)CC3)c1 [Example 16, ethanesulfonic acid [5-(7-fluoro-1-methyl-2-oxo-1,2,3,4-tetrahydro-quinolin-6-yl)-pyridin-3-ylmethyl]-amide]	860	11
CN1C(=O)CCc2cc(-c3cncc(N4CCCC4=O)c3)ccc21 [Example 14]	1570	308
Cc1noc(C)c1C(=O)NCc1cncc(-c2ccc3c(c2)CCC(=O)N3C)c1Cl [Example 219, 3,5-Dimethyl-isoxazole-4-carboxylic acid [4-chloro-5-(1-methyl-2-oxo-1,2,3,4-tetrahydro-quinolin-6-yl)-pyridin-3-ylmethyl]-amide]	557	12
CN1C(=O)CCc2cc(-c3cncc(CNC(=O)c4cnn(C)c4)c3)c(F)cc21 [Example 175, 1-Methyl-1H-pyrazole-4-carboxylic acid [5-(7-fluoro-1-methyl-2-oxo-1,2,3,4-tetrahydro-quinolin-6-yl)-pyridin-3-ylmethyl]-amide]	688	7
CN1C(=O)CCc2cc(-c3cncc(OC[C@@H]4CCN4C(=O)C4CC4)c3)ccc21 [Example 91]	3070	43
CC(N)c1cncc(-c2ccc3c(c2)CCC(=O)N3C)c1 (single isomer, unassigned) [Example 65, 6-[5-((R or S)-1-amino-ethyl)-pyridin-3-yl]-1-methyl-3,4-dihydro-1H-quinolin-2-one hydrochloride]	13100	315
